Experimental data from US20090155209A1, “NOVEL MACROCYCLIC INHIBITORS OF HEPATITIS C VIRUS REPLICATION” (priority 2007, published 2009).

Experiments:
NS3-NS4 [1] = biological target: T1, NS3-NS4 (Hepatitis C virus genotype 1a, UniProt P27958); experiment: NS3-NS4 activity, IC50 (Example 37, Table 8); format: biochemical
NS3-NS4 [2] = biological target: T1, NS3-NS4; experiment: cell-based; settings: EC50, NS3-NS4 activity

T1 sequence (P27958 1027-1657): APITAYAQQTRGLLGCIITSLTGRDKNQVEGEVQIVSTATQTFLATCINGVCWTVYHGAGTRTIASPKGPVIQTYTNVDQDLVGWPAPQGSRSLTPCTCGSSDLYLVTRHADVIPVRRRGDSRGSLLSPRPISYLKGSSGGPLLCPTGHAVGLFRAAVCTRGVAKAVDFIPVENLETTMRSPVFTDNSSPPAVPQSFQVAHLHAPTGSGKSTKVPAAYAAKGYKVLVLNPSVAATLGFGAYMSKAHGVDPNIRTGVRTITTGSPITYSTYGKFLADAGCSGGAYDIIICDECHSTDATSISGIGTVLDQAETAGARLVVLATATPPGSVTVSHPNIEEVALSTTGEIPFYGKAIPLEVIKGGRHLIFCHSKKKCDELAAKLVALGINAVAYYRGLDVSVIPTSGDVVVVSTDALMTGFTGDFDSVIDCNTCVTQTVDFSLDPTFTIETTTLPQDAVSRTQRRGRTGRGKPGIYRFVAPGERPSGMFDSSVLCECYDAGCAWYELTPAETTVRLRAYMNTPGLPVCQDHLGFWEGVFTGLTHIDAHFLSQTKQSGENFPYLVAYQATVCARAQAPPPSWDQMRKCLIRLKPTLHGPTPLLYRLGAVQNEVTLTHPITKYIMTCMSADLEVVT
T1 sequence (P27958 1658-1711): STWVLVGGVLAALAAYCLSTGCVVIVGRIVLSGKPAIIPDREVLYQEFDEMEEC

CC(C)(C)OC(=O)N[C@H]1CCCCC[C@@H]2C[C@@H]2[C@@H]2C[C@@]2(C(=O)NS(=O)(=O)C2(C)CC2)NC(=O)[C@@H]2C[C@@H](OC(=O)N3Cc4cccc(F)c4C3)CN2C1=O [Compound 901]
IC50 (NS3-NS4 [1]): < 100 nM | EC50 (NS3-NS4 [2]): < 100 nM

O=C(N[C@H]1CCCCC/C=C\[C@@H]2C[C@@]2(C(=O)NS(=O)(=O)C2CC2)NC(=O)[C@@H]2C[C@@H](OC(=O)N3Cc4cccc(F)c4C3)CN2C1=O)OC1CCC1 [Compound 427]
IC50 (NS3-NS4 [1]): < 100 nM | EC50 (NS3-NS4 [2]): < 100 nM

CN(C(=O)N[C@H]1CCCCC/C=C\[C@@H]2C[C@@]2(C(=O)NS(=O)(=O)C2CC2)NC(=O)[C@@H]2C[C@@H](OC(=O)N3Cc4cccc(F)c4C3)CN2C1=O)C(C)(C)C [Compound 407, (2R,6S,13aS,14aR,16aS,Z)-6-(3-tert-butyl-3-methylureido)-14a-(cyclopropylsulfonylcarbamoyl)-5,16-dioxo-1,2,3,5,6,7,8,9,10,11,13a,14,14a,15,16,16a-hexadecahydrocyclopropa[e]pyrrolo[1,2-a][1,4]diazacyclopentadecin-2-yl 4-fluoroisoindoline-2-carboxylate]
IC50 (NS3-NS4 [1]): < 100 nM | EC50 (NS3-NS4 [2]): < 100 nM

CC(C)(C)OC(=O)N[C@H]1CCCCC/C=C\[C@@H]2C[C@@]2(C(=O)NS(=O)(=O)c2cc(Cl)sc2Cl)NC(=O)[C@@H]2C[C@@H](OC(=O)N3Cc4ccccc4C3)CN2C1=O [Compound 319]
IC50 (NS3-NS4 [1]): < 100 nM | EC50 (NS3-NS4 [2]): < 100 nM

O=C1N[C@]2(C(=O)NS(=O)(=O)C3CC3)C[C@H]2/C=C\CCCCC[C@H](Nc2nc(-c3cccc(C(F)(F)F)c3)cs2)C(=O)N2C[C@H](OC(=O)N3Cc4cccc(F)c4C3)C[C@@H]12 [Compound 218]
IC50 (NS3-NS4 [1]): < 100 nM | EC50 (NS3-NS4 [2]): < 100 nM

CC(C)(C)OC(=O)N[C@H]1CCCCCCC[C@@H]2C[C@@]2(C(=O)NS(=O)(=O)c2ccc(Cl)nc2Cl)NC(=O)[C@@H]2C[C@@H](OC(=O)N3Cc4cccc(F)c4C3)CN2C1=O [Compound 637]
IC50 (NS3-NS4 [1]): < 100 nM | EC50 (NS3-NS4 [2]): 100 to 1000 nM

CC(=O)O[C@@H]1C[C@H]2C(=O)N[C@]3(C(=O)NS(=O)(=O)C4CC4)C[C@H]3/C=C\CCCCC[C@H](Nc3nc(-c4ccccc4)c(-c4ccccc4)s3)C(=O)N2C1 [Compound 235]
IC50 (NS3-NS4 [1]): < 100 nM | EC50 (NS3-NS4 [2]): 100 to 1000 nM

CC(C)(C)OC(=O)N[C@H]1CCCCCCC[C@@H]2C[C@@]2(C(=O)NOc2ccc(F)cc2)NC(=O)[C@@H]2C[C@@H](OC(=O)N3Cc4cccc(F)c4C3)CN2C1=O [Compound 811]
IC50 (NS3-NS4 [1]): < 100 nM | EC50 (NS3-NS4 [2]): 1000 to 10000 nM

Cc1ccc(S(=O)(=O)NC(=O)[C@@]23C[C@H]2/C=C\CCCCC[C@H](NC(=O)OC(C)(C)C)C(=O)N2C[C@H](OC(=O)N4Cc5cccc(F)c5C4)C[C@H]2C(=O)N3)cc1 [Compound 318]
IC50 (NS3-NS4 [1]): < 100 nM | EC50 (NS3-NS4 [2]): < 100 nM

CC(C)(C)OC(=O)N[C@H]1CCCCC[C@H]2C[C@H]2[C@@H]2C[C@@]2(C(=O)NS(=O)(=O)C2(C)CC2)NC(=O)[C@@H]2C[C@@H](OC(=O)N3Cc4cccc(F)c4C3)CN2C1=O [Compound 903]
IC50 (NS3-NS4 [1]): < 100 nM | EC50 (NS3-NS4 [2]): < 100 nM

C[C@H](O)CONC(=O)[C@@]12C[C@H]1/C=C\CCCCC[C@H](NC(=O)OC(C)(C)C)C(=O)N1C[C@H](OC(=O)N3Cc4cccc(F)c4C3)C[C@H]1C(=O)N2 [Compound 110]
IC50 (NS3-NS4 [1]): < 100 nM | EC50 (NS3-NS4 [2]): < 100 nM

CC(C)(C)COC(=O)N[C@H]1CCCCC/C=C\[C@@H]2C[C@@]2(C(=O)NS(=O)(=O)c2cc(Cl)sc2Cl)NC(=O)[C@@H]2C[C@@H](OC(=O)N3Cc4cccc(F)c4C3)CN2C1=O [Compound 343]
IC50 (NS3-NS4 [1]): < 100 nM | EC50 (NS3-NS4 [2]): < 100 nM

COc1cc(CS(=O)(=O)NC(=O)[C@@]23C[C@H]2CCCCCCC[C@H](NC(=O)OC(C)(C)C)C(=O)N2C[C@H](OC(=O)N4Cc5cccc(F)c5C4)C[C@H]2C(=O)N3)cc(OC)c1 [Compound 632]
IC50 (NS3-NS4 [1]): < 100 nM | EC50 (NS3-NS4 [2]): 100 to 1000 nM

CN(C(=O)N[C@H]1CCCCC/C=C\[C@@H]2C[C@@]2(C(=O)NS(=O)(=O)C2CC2)NC(=O)[C@@H]2C[C@@H](OC(=O)N3Cc4cccc(Cl)c4C3)CN2C1=O)C(C)(C)C [Compound 424]
IC50 (NS3-NS4 [1]): < 100 nM | EC50 (NS3-NS4 [2]): < 100 nM

O=C1N[C@]2(C(=O)NS(=O)(=O)C3CC3)C[C@H]2/C=C\CCCCC[C@H](NC(=O)N2CCOCC2)C(=O)N2C[C@H](OC(=O)N3Cc4cccc(F)c4C3)C[C@@H]12 [Compound 414]
IC50 (NS3-NS4 [1]): < 100 nM | EC50 (NS3-NS4 [2]): 100 to 1000 nM

O=C(N[C@H]1CCCCC/C=C\[C@@H]2C[C@@]2(C(=O)NS(=O)(=O)C2CC2)NC(=O)[C@@H]2C[C@@H](OC(=O)N3Cc4cccc(F)c4C3)CN2C1=O)OC(C1CC1)C1CC1 [Compound 428]
IC50 (NS3-NS4 [1]): < 100 nM | EC50 (NS3-NS4 [2]): 100 to 1000 nM

Cc1cc(S(=O)(=O)NC(=O)[C@@]23C[C@H]2/C=C\CCCCC[C@H](NC(=O)OC(C)(C)C)C(=O)N2C[C@H](OC(=O)N4Cc5cccc(F)c5C4)C[C@H]2C(=O)N3)oc1C [Compound 534]
IC50 (NS3-NS4 [1]): < 100 nM | EC50 (NS3-NS4 [2]): 100 to 1000 nM

Cc1ccc(ONC(=O)[C@@]23C[C@H]2/C=C\CCCCC[C@H](NC(=O)OC(C)(C)C)C(=O)N2C[C@H](OC(=O)N4Cc5cccc(F)c5C4)C[C@H]2C(=O)N3)cc1C [Compound 714]
IC50 (NS3-NS4 [1]): < 100 nM | EC50 (NS3-NS4 [2]): 1000 to 10000 nM

O=C1NC2(C(=O)NS(=O)(=O)C3CC3)C[C@H]2/C=C\CCCCC[C@H](Nc2nc(-c3ccc(F)cc3)cs2)C(=O)N2C[C@H](OC(=O)N3Cc4cccc(F)c4C3)C[C@@H]12 (stereo partly drawn) [Compound 224]
IC50 (NS3-NS4 [1]): < 100 nM | EC50 (NS3-NS4 [2]): < 100 nM

O=C1N[C@]2(C(=O)NS(=O)(=O)C3CC3)C[C@H]2/C=C\CCCCC[C@H](Nc2nc(-c3ccccn3)cs2)C(=O)N2C[C@H](OC(=O)N3Cc4cccc(F)c4C3)C[C@@H]12 [Compound 212]
IC50 (NS3-NS4 [1]): < 100 nM | EC50 (NS3-NS4 [2]): < 100 nM

CN(C(=O)N[C@H]1CCCCC/C=C\[C@@H]2C[C@@]2(C(=O)NS(=O)(=O)c2ccc(Cl)cc2)NC(=O)[C@@H]2C[C@@H](OC(=O)N3Cc4cccc(F)c4C3)CN2C1=O)C(C)(C)C [Compound 361]
IC50 (NS3-NS4 [1]): < 100 nM | EC50 (NS3-NS4 [2]): < 100 nM

O=C1N[C@]2(C(=O)NS(=O)(=O)C3CC3)C[C@H]2/C=C\CCCCC[C@H](Nc2nc(-c3ccc(F)cn3)cs2)C(=O)N2C[C@H](OC(=O)N3CCc4ccccc4C3)C[C@@H]12 [Compound 229]
IC50 (NS3-NS4 [1]): < 100 nM | EC50 (NS3-NS4 [2]): < 100 nM

CN(C(=O)N[C@H]1CCCCC/C=C\[C@@H]2C[C@@]2(C(=O)NS(=O)(=O)C2CC2)NC(=O)[C@@H]2C[C@@H](OC(=O)N3Cc4cccc(F)c4C3)CN2C1=O)C1CCCC1 [Compound 425]
IC50 (NS3-NS4 [1]): < 100 nM | EC50 (NS3-NS4 [2]): < 100 nM

Cc1ccccc1S(=O)(=O)NC(=O)[C@@]12C[C@H]1CCCCCCC[C@H](NC(=O)OC(C)(C)C)C(=O)N1C[C@H](OC(=O)N3Cc4cccc(F)c4C3)C[C@H]1C(=O)N2 [Compound 602]
IC50 (NS3-NS4 [1]): < 100 nM | EC50 (NS3-NS4 [2]): < 100 nM

N#Cc1ccc(-c2csc(N[C@H]3CCCCC/C=C\[C@@H]4C[C@@]4(C(=O)NS(=O)(=O)C4CC4)NC(=O)[C@@H]4C[C@@H](OC(=O)N5Cc6cccc(F)c6C5)CN4C3=O)n2)cc1 [Compound 211]
IC50 (NS3-NS4 [1]): < 100 nM | EC50 (NS3-NS4 [2]): < 100 nM

CC(C)(C)OC(=O)N[C@H]1CCCCC/C=C\[C@@H]2C[C@@]2(C(=O)NS(=O)(=O)c2cccc(Cl)c2)NC(=O)[C@@H]2C[C@@H](OC(=O)N3Cc4cccc(F)c4C3)CN2C1=O [Compound 353]
IC50 (NS3-NS4 [1]): < 100 nM | EC50 (NS3-NS4 [2]): < 100 nM

O=C(N[C@H]1CCCCC/C=C\[C@@H]2C[C@@]2(C(=O)NS(=O)(=O)C2CC2)NC(=O)[C@@H]2C[C@@H](OC(=O)N3Cc4cccc(Cl)c4C3)CN2C1=O)OC1CCOCC1 [Compound 411]
IC50 (NS3-NS4 [1]): < 100 nM | EC50 (NS3-NS4 [2]): < 100 nM

O=C1N[C@]2(C(=O)NS(=O)(=O)C3CC3)C[C@H]2/C=C\CCCCC[C@H](NC(=O)N2CCC(F)(F)C2)C(=O)N2C[C@H](OC(=O)N3Cc4cccc(F)c4C3)C[C@@H]12 [Compound 416]
IC50 (NS3-NS4 [1]): < 100 nM | EC50 (NS3-NS4 [2]): 100 to 1000 nM

O=C(N[C@H]1CCCCC/C=C\[C@@H]2C[C@@]2(C(=O)NS(=O)(=O)C2CC2)NC(=O)[C@@H]2C[C@@H](OC(=O)N3Cc4ccc(F)cc4C3)CN2C1=O)OC1CCOCC1 [Compound 410]
IC50 (NS3-NS4 [1]): < 100 nM | EC50 (NS3-NS4 [2]): 100 to 1000 nM

O=C(N[C@H]1CCCCC/C=C\[C@@H]2C[C@@]2(C(=O)NS(=O)(=O)C2CC2)NC(=O)[C@@H]2C[C@@H](OC(=O)N3Cc4cccc(F)c4C3)CN2C1=O)OCC1CCC1 [Compound 430]
IC50 (NS3-NS4 [1]): < 100 nM | EC50 (NS3-NS4 [2]): < 100 nM

CC(C)(C)OC(=O)N[C@H]1CCCCC/C=C\[C@@H]2C[C@@]2(C(=O)NOc2ccccc2)NC(=O)[C@@H]2C[C@@H](OC(=O)N3Cc4cccc(F)c4C3)CN2C1=O [Compound 711]
IC50 (NS3-NS4 [1]): < 100 nM | EC50 (NS3-NS4 [2]): 1000 to 10000 nM

O=C1N[C@]2(C(=O)NS(=O)(=O)C3CC3)C[C@H]2/C=C\CCCCC[C@H](Nc2nc(-c3ccc(OC(F)(F)F)cc3)cs2)C(=O)N2C[C@H](OC(=O)N3Cc4cccc(F)c4C3)C[C@@H]12 [Compound 222]
IC50 (NS3-NS4 [1]): < 100 nM | EC50 (NS3-NS4 [2]): < 100 nM

CC(C)(C)COC(=O)N[C@H]1CCCCC/C=C\[C@@H]2C[C@@]2(C(=O)NS(=O)(=O)c2ccc(Cl)cc2)NC(=O)[C@@H]2C[C@@H](OC(=O)N3Cc4cccc(F)c4C3)CN2C1=O [Compound 340]
IC50 (NS3-NS4 [1]): < 100 nM | EC50 (NS3-NS4 [2]): < 100 nM

CC(C)c1cnc(N[C@H]2CCCCC/C=C\[C@@H]3C[C@@]3(C(=O)NS(=O)(=O)C3CC3)NC(=O)[C@@H]3C[C@@H](OC(=O)N4Cc5cccc(F)c5C4)CN3C2=O)s1 [Compound 201, (2R,6S,13aS,14aR,16aS,Z)-14a-(cyclopropylsulfonylcarbamoyl)-6-(5-isopropylthiazol-2-ylamino)-5,16-dioxo-1,2,3,5,6,7,8,9,10,11,13a,14,14a,15,16,16a-hexadecahydrocyclopropa[e]pyrrolo[1,2-a][1,4]diazacyclopentadecin-2-yl 4-fluoroisoindoline-2-carboxylate]
IC50 (NS3-NS4 [1]): < 100 nM | EC50 (NS3-NS4 [2]): < 100 nM

CC(C)CS(=O)(=O)NC(=O)[C@@]12C[C@H]1/C=C\CCCCC[C@H](NC(=O)OC(C)(C)C)C(=O)N1C[C@H](OC(=O)N3Cc4cccc(F)c4C3)C[C@H]1C(=O)N2 [Compound 551]
IC50 (NS3-NS4 [1]): < 100 nM | EC50 (NS3-NS4 [2]): < 100 nM

CC(C)(C)OC(=O)N[C@H]1CCCCCCC[C@@H]2C[C@@]2(C(=O)NS(=O)(=O)c2cc3ccccc3o2)NC(=O)[C@@H]2C[C@@H](OC(=O)N3Cc4cccc(F)c4C3)CN2C1=O [Compound 648]
IC50 (NS3-NS4 [1]): < 100 nM | EC50 (NS3-NS4 [2]): 100 to 1000 nM
